According to US20260248783A1 (ASCLETIS BIOSCIENCE CO., LTD., priority 2021, published 2026):
Where a name gives a salt, the structure may show the parent alone.

molecular target: T1, PD-1/PD-L1 (Homo sapiens, UniProt Q9NZQ7); experiment: PD-1/PD-L1 Homogeneous Time-Resolved Fluorescence (HTRF) Binding Assay; conditions: PD-1/PD-L1 HTRF activity; 3 nM PD1, 10 nM PD-L1, 25° C.
T1 construct: Recombinant human PD-L1 protein (19-238) with a Histag at the C-terminus; purchased AcroBiosystems PD1-H5229 (PD-L1); PD1-H5257 (PD-1)
T1 sequence (Q9NZQ7 19-238): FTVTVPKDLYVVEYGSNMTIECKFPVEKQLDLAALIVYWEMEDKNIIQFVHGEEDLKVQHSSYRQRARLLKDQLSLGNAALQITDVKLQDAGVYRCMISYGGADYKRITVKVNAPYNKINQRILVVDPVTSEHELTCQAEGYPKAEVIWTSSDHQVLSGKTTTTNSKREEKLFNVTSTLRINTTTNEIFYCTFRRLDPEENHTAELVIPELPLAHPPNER
Description: Example 107. PD-1/PD-L1 Homogeneous Time-Resolved Fluorescence (HTRF) Binding Assay
The assays were conducted in a standard black 384-well polystyrene plate with a final volume of 20 μL. Inhibitors were first serially diluted in DMSO and then added to the plate wells before the addition of other reaction components. The final concentration of DMSO in the assay was 1%. The assays were carried out at 25° C. in the PBS buffer (pH 7.4) with 0.05% Tween-20 and 0.1% BSA. Recombinant human PD-L1 protein (19-238) with a Histag at the C-terminus was purchased from AcroBiosystems (PD1-H5229). Recombinant human PD-1 protein (25-167) with Fe tag at the C-terminus was also purchased from AcroBiosystems (PD1-H5257). PD-L1 and PD-1 proteins were diluted in the assay buffer and 10 μL was added to the plate well. Plates were centrifuged and proteins were preincubated with inhibitors for 40 minutes. The incubation was followed by the addition of 10 μL of HTRF detection buffer supplemented with Europium cryptate-labeled anti-human IgG (PerkinElmer-AD0212) specific for Fe and anti-His antibody conjugated to SureLight®—Allophycocyanin (APC, PerkinElmer-AD0059H). After centrifugation, the plate was incubated at 25° C. for 60 min. before reading on a PHERAstar FS plate reader (665 nm/620 nm ratio). Final concentrations in the assay were […], 10 nM PD-L1, 1 nM europium anti-human IgG and 20 nM anti-His-Allophycocyanin. IC50 determination was performed by fitting the curve of percent control activity versus the log of the inhibitor concentration.

Row | IC50 [nM] | Compound
1 | ≥ 100 | O=C(O)CCn1cnn2cc(-c3cccc(-c4cccc(-c5cc6c(=O)n(CCC(=O)O)cnn6c5)c4Cl)c3Cl)cc2c1=O [Compound 24, 3,3′-((2,2′-dichloro-[1,1′-biphenyl]-3,3′-diyl)bis(4-oxopyrrolo[2,1-f][1,2,4]triazine-6,3(4H)-diyl))dipropionic acid]
2 | 10 to 100 | O=c1c2cc(-c3cccc(-c4cccc(-c5cc6c(=O)n(CCn7nccn7)cnn6c5)c4Cl)c3Cl)cn2ncn1CCn1nccn1 [Compound 25, 6,6′-(2,2′-dichloro-[1,1′-biphenyl]-3,3′-diyl)bis(3-(2-(2H-1,2,3-triazol-2-yl)ethyl)pyrrolo[2,1-f][1,2,4]triazin-4(3H)-one)]
3 | ≥ 100 | CN1CCN(CCn2cnn3cc(-c4cccc(-c5cccc(-c6cc7c(=O)n(CCN8CCN(C)CC8)cnn7c6)c5Cl)c4Cl)cc3c2=O)CC1 [Compound 26, 6,6′-(2,2′-dichloro-[1,1′-biphenyl]-3,3′-diyl)bis(3-(2-(4-methylpiperazin-1-yl)ethyl)pyrrolo[2,1-f][1,2,4]triazin-4(3H)-one)]
4 | ≥ 100 | O=C1CCC(Cn2cnn3cc(-c4cccc(-c5cccc(-c6cc7c(=O)n(CC8CCC(=O)O8)cnn7c6)c5Cl)c4Cl)cc3c2=O)O1 (centres unmarked) [Compound 27, 6,6′-(2,2′-dichloro-[1,1′-biphenyl]-3,3′-diyl)bis(3-((5-oxotetrahydrofuran-2-yl)methyl)pyrrolo[2,1-f][1,2,4]triazin-4(3H)-one)]
5 | ≥ 100 | O=C(O)CCC(O)Cn1cnn2cc(-c3cccc(-c4cccc(-c5cc6c(=O)n(CC(O)CCC(=O)O)cnn6c5)c4Cl)c3Cl)cc2c1=O (centres unmarked) [Compound 28, 5,5′-((2,2′-dichloro-[1,1′-biphenyl]-3,3′-diyl)bis(4-oxopyrrolo[2,1-f][1,2,4]triazine-6,3(4H)-diyl))bis(4-hydroxypentanoic acid)]
6 | < 10 | Cc1cn2nc(-c3cccc(-c4cccc(-c5cc6c(=O)n(C[C@@H]7CCC(=O)N7)c(C)cn6n5)c4Cl)c3Cl)cc2c(=O)n1C[C@@H]1CCC(=O)N1 [Compound 29]
7 | < 10 | Cc1cn2cc(-c3cccc(-c4cccc(-c5cc6c(=O)n(C[C@@H]7CCC(=O)N7)c(C)cn6c5)c4Cl)c3Cl)cc2c(=O)n1C[C@@H]1CCC(=O)N1 [Compound 30, 7,7′-(2,2′-dichloro-[1,1′-biphenyl]-3,3′-diyl)bis(3-methyl-2-(((S)-5-oxopyrrolidin-2-yl)methyl)pyrrolo[1,2-a]pyrazin-1(2H)-one)]
8 | 10 to 100 | O=C1CC[C@@H](Cn2c(C3CC3)cn3cc(-c4cccc(-c5cccc(-c6cc7c(=O)n(C[C@@H]8CCC(=O)N8)c(C8CC8)cn7c6)c5Cl)c4Cl)cc3c2=O)N1 [Compound 31, 7,7′-(2,2′-dichloro-[1,1′-biphenyl]-3,3′-diyl)bis(3-cyclopropyl-2-(((S)-5-oxopyrrolidin-2-yl)methyl)pyrrolo[1,2-a]pyrazin-1(2H)-one)]
9 | 10 to 100 | O=C1CC[C@@H](Cn2c(C3CC3)cn3nc(-c4cccc(-c5cccc(-c6cc7c(=O)n(C[C@@H]8CCC(=O)N8)c(C8CC8)cn7n6)c5Cl)c4Cl)cc3c2=O)N1 [Compound 32, 2,2′-(2,2′-dichloro-[1,1′-biphenyl]-3,3′-diyl)bis(6-cyclopropyl-5-(((S)-5-oxopyrrolidin-2-yl)methyl)pyrazolo[1,5-a]pyrazin-4(5H)-one)]
10 | 10 to 100 | CCc1cn2nc(-c3cccc(-c4cccc(-c5cc6c(=O)n(C[C@@H]7CCC(=O)N7)c(CC)cn6n5)c4Cl)c3Cl)cc2c(=O)n1C[C@@H]1CCC(=O)N1 [Compound 33, 2,2′-(2,2′-dichloro-[1,1′-biphenyl]-3,3′-diyl)bis(6-ethyl-5-(((S)-5-oxopyrrolidin-2-yl)methyl)pyrazolo[1,5-a]pyrazin-4(5H)-one)]
11 | 10 to 100 | O=C1CC[C@@H](Cn2c(C3CC3)nn3cc(-c4cccc(-c5cccc(-c6cc7c(=O)n(C[C@@H]8CCC(=O)N8)c(C8CC8)nn7c6)c5Cl)c4Cl)cc3c2=O)N1 [Compound 34, 6,6′-(2,2′-dichloro-[1,1′-biphenyl]-3,3′-diyl)bis(2-cyclopropyl-3-(((S)-5-oxopyrrolidin-2-yl)methyl)pyrrolo[2,1-f][1,2,4]triazin-4(3H)-one)]
12 | < 10 | Cc1nn2cc(-c3cccc(-c4cccc(-c5cc6c(=O)n(C[C@@H]7CCC(=O)N7)c(C)nn6c5)c4Cl)c3Cl)cc2c(=O)n1C[C@@H]1CCC(=O)N1 [Compound 35, 6,6′-(2,2′-dichloro-[1,1′-biphenyl]-3,3′-diyl)bis(2-methyl-3-(((S)-5-oxopyrrolidin-2-yl)methyl)pyrrolo[2,1-f][1,2,4]triazin-4(3H)-one)]
13 | 10 to 100 | Cc1cn2nc(-c3cccc(-c4cccc(-c5cc6c(=O)n(C[C@H]7CCCN7)c(C)cn6n5)c4Cl)c3Cl)cc2c(=O)n1C[C@H]1CCCN1 [Compound 37, 2,2′-(2,2′-dichloro-[1,1′-biphenyl]-3,3′-diyl)bis(6-methyl-5-(((R)-pyrrolidin-2-yl)methyl)pyrazolo[1,5-a]pyrazin-4(5H)-one) dihydrochloride]
14 | 10 to 100 | Cc1cn2cc(-c3cccc(-c4cccc(-c5cc6c(=O)n(C[C@@H]7CCCN7)c(C)cn6c5)c4Cl)c3Cl)cc2c(=O)n1C[C@@H]1CCCN1 [Compound 38, 7,7′-(2,2′-dichloro-[1,1′-biphenyl]-3,3′-diyl)bis(3-methyl-2-(((S)-pyrrolidin-2-yl)methyl)pyrrolo[1,2-a]pyrazin-1(2H)-one)]
15 | 10 to 100 | Cc1cn2cc(-c3cccc(-c4cccc(-c5cc6c(=O)n(C[C@H]7CCCN7)c(C)cn6c5)c4Cl)c3Cl)cc2c(=O)n1C[C@H]1CCCN1 [Compound 39, 7,7′-(2,2′-dichloro-[1,1′-biphenyl]-3,3′-diyl)bis(3-methyl-2-(((R)-pyrrolidin-2-yl)methyl)pyrrolo[1,2-a]pyrazin-1(2H)-one)]
16 | 10 to 100 | Cn1c(CN2CC[C@H](C(=O)O)C2)cn2nc(-c3cccc(-c4cccc(-c5cc6c(=O)n(C)c(CN7CC[C@H](C(=O)O)C7)cn6n5)c4Cl)c3Cl)cc2c1=O [Compound 41, (3S,3'S)-1,1′-(((2,2′-dichloro-[1,1′-biphenyl]-3,3′-diyl)bis(5-methyl-4-oxo-4,5-dihydropyrazolo[1,5-a]pyrazine-2,6-diyl))bis(methylene))bis(pyrrolidine-3-carboxylic acid)]
17 | < 10 | Cn1c(CNCCO)cn2nc(-c3cccc(-c4cccc(-c5cc6c(=O)n(C)c(CNCCO)cn6n5)c4Cl)c3Cl)cc2c1=O [Compound 42, 2,2′-(2,2′-dichloro-[1,1′-biphenyl]-3,3′-diyl)bis(6-(((2-hydroxyethyl)amino)methyl)-5-methylpyrazolo[1,5-a]pyrazin-4(5H)-one)]
18 | 10 to 100 | CC(=O)NCCNCc1cn2cc(-c3cccc(-c4cccc(-c5cc6c(=O)n(C)c(CNCCNC(C)=O)cn6c5)c4Cl)c3Cl)cc2c(=O)n1C [Compound 44, N,N′-(((((2,2′-dichloro-[1,1′-biphenyl]-3,3′-diyl)bis(2-methyl-1-oxo-1,2-dihydropyrrolo[1,2-a]pyrazine-7,3-diyl))bis(methylene))bis(azanediyl))bis(ethane-2,1-diyl))diacetamide]
19 | < 10 | Cn1c(CNCCO)cn2cc(-c3cccc(-c4cccc(-c5cc6c(=O)n(C)c(CNCCO)cn6c5)c4Cl)c3Cl)cc2c1=O [Compound 45, 7,7′-(2,2′-dichloro-[1,1′-biphenyl]-3,3′-diyl)bis(3-(((2-hydroxyethyl)amino)methyl)-2-methylpyrrolo[1,2-a]pyrazin-1(2H)-one)]
20 | 10 to 100 | Cn1c(CN2CC[C@H](O)C2)cn2cc(-c3cccc(-c4cccc(-c5cc6c(=O)n(C)c(CN7CC[C@H](O)C7)cn6c5)c4Cl)c3Cl)cc2c1=O [Compound 46, 7,7′-(2,2′-dichloro-[1,1′-biphenyl]-3,3′-diyl)bis(3-(((S)-3-hydroxypyrrolidin-1-yl)methyl)-2-methylpyrrolo[1,2-a]pyrazin-1(2H)-one)]
21 | 10 to 100 | Cc1cn2cc(-c3cccc(-c4cccc(-c5cc6c(=O)n(CCN7CC[C@H](O)C7)c(C)cn6c5)c4Cl)c3Cl)cc2c(=O)n1CCN1CC[C@H](O)C1 [Compound 48, 7,7′-(2,2′-dichloro-[1,1′-biphenyl]-3,3′-diyl)bis(2-(2-((S)-3-hydroxypyrrolidin-1-yl)ethyl)-3-methylpyrrolo[1,2-a]pyrazin-1(2H)-one)]
22 | 10 to 100 | Cc1cn2cc(-c3cccc(-c4cccc(-c5cc6c(=O)n(CCN7C[C@@H](O)C[C@H]7C(=O)O)c(C)cn6c5)c4Cl)c3Cl)cc2c(=O)n1CCN1C[C@@H](O)C[C@H]1C(=O)O [Compound 50, (2S,2'S,4S,4'S)-1,1′-(((2,2′-dichloro-[1,1′-biphenyl]-3,3′-diyl)bis(3-methyl-1-oxopyrrolo[1,2-a]pyrazine-7,2(1H)-diyl))bis(ethane-2,1-diyl))bis(4-hydroxypyrrolidine-2-carboxylic acid)]
23 | < 10 | CC(=O)NCCNCCn1c(C)cn2cc(-c3cccc(-c4cccc(-c5cc6c(=O)n(CCNCCNC(C)=O)c(C)cn6c5)c4Cl)c3Cl)cc2c1=O [Compound 54, N,N′-(((((2,2′-dichloro-[1,1′-biphenyl]-3,3′-diyl)bis(3-methyl-1-oxopyrrolo[1,2-a]pyrazine-7,2(1H)-diyl))bis(ethane-2,1-diyl))bis(azanediyl))bis(ethane-2,1-diyl))diacetamide]
